Experimental data from patent US6617325B1, “Biphenyl derivatives, production thereof and uses as medicines” (Boehringer Ingelheim Pharma KG, priority 1999, dated 2003).

melting point: 110 °C
Compound: CCC(CCCN1CCC(NC(=O)c2ccccc2-c2ccc(C(F)(F)F)cc2)CC1)(CC(=O)OC)c1ccccc1 (stereo not shown) [Example 2, Methyl 2-ethyl-2-phenyl-5-{4-[(4′-trifluoromethyl-biphenyl-2-carbonyl)-amino]-piperidin-1-yl}-pentanecarboxylate]
